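Growth conditions: 96-well plates. Treatment: test compound, 48 hours, 5 concentrations. Analysis: linear interpolation between bracketing concentrations; unreached endpoints set to highest concentration. GI50: concentration for 50% inhibition of growth.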 Active and inactive are the calls of the source. No stated cut-off is given here; in the data, active = GI50 up to about 1.1 µM and inactive = higher.
Legend:
Assay in all cases: NCI tumour cell line growth inhibition, 48 h
U-251 = tested on: U-251
EKVX = tested on: EKVX
RPMI-8226 = tested on: RPMI-8226
SK-MEL-28 = tested on: SK-MEL-28
MDA-MB-435 = tested on: MDA-MB-435
HL-60 = tested on: HL-60
UACC-257 = tested on: UACC-257
DU-145 = tested on: DU-145
OVCAR-3 = tested on: OVCAR-3
UO-31 = tested on: UO-31
MDA-MB-231 = tested on: MDA-MB-231
Hs-578T = tested on: Hs-578T
786-0 = tested on: 786-0
MOLT-4 = tested on: MOLT-4
Malme-3M = tested on: Malme-3M
HT-29 = tested on: HT-29
LOX IMVI = tested on: LOX IMVI
COLO 205 = tested on: COLO 205
OVCAR-5 = tested on: OVCAR-5
OVCAR-8 = tested on: OVCAR-8

SMILES | GI50 (U-251) | GI50 (EKVX) | GI50 (RPMI-8226) | GI50 (SK-MEL-28) | GI50 (MDA-MB-435) | GI50 (HL-60) | GI50 (UACC-257) | GI50 (DU-145) | GI50 (OVCAR-3) | GI50 (UO-31) | GI50 (MDA-MB-231) | GI50 (Hs-578T) | GI50 (786-0) | GI50 (MOLT-4) | GI50 (Malme-3M) | GI50 (HT-29) | GI50 (LOX IMVI) | GI50 (COLO 205) | GI50 (OVCAR-5) | GI50 (OVCAR-8)
O=C(Nc1nnc(-c2ccccc2)o1)C(SC(=S)N1CCOCC1)c1ccccc1 (stereo not given) | 18.6 µM (inactive) | 15.3 µM (inactive) | 22.6 µM (inactive) | 46.9 µM (inactive) | 33.2 µM (inactive) | 12.3 µM (inactive) | 35.6 µM (inactive) | 37.2 µM (inactive) | 15 µM (inactive) | 13.6 µM (inactive) | 42 µM (inactive) | 86.3 µM (inactive) | 17.9 µM (inactive) | 7.98 µM (inactive) | 55.6 µM (inactive) | 26.4 µM (inactive) | 16.3 µM (inactive) | 35.6 µM (inactive) | 25.6 µM (inactive) | 31.8 µM (inactive)
CS(=O)(=O)OCCN(CCOS(C)(=O)=O)c1ccc(/C=N/c2ccc3oc(=O)ccc3c2)cc1 | 9.38 µM (inactive) | 8.2 µM (inactive) | 6.53 µM (inactive) | 12.9 µM (inactive) | 11.1 µM (inactive) | 1.71 µM (inactive) | 6.82 µM (inactive) | 0.968 µM (active) | 3.58 µM (inactive) | 0.959 µM (active) | 32.9 µM (inactive) | 28.1 µM (inactive) | 0.321 µM (active) | 0.318 µM (active) | 8.73 µM (inactive) | 5.66 µM (inactive) | 7.23 µM (inactive) | 2.05 µM (inactive) | 3.24 µM (inactive) | 6.97 µM (inactive)
ClC(Cl)=C1C(=C(Cl)Cl)C(Cl)(Cl)C1(Cl)Cl | 5.41 µM (inactive) | 7.52 µM (inactive) | 0.558 µM (active) | 1.44 µM (inactive) | 2.71 µM (inactive) | 0.625 µM (active) | 3.51 µM (inactive) | 10.7 µM (inactive) | 4.31 µM (inactive) | 3.05 µM (inactive) | 2.4 µM (inactive) | 2.36 µM (inactive) | 1.07 µM (active) | 0.126 µM (active) | 2.42 µM (inactive) | 2.02 µM (inactive) | 0.212 µM (active) | 2.92 µM (inactive) | 2.64 µM (inactive) | 1.49 µM (inactive)
CN(C)c1ccc(/N=N\c2cccc3ccoc23)cc1 | > 62.5 µM (inactive) | 26.9 µM (inactive) | 52.2 µM (inactive) | > 100 µM (inactive) | > 94.2 µM (inactive) | 23.8 µM (inactive) | > 60.7 µM (inactive) | > 100 µM (inactive) | 38.4 µM (inactive) | 6.46 µM (inactive) | > 76.9 µM (inactive) | > 100 µM (inactive) | > 100 µM (inactive) | 17.1 µM (inactive) | > 100 µM (inactive) | 29.5 µM (inactive) | > 100 µM (inactive) | > 82.8 µM (inactive) | > 100 µM (inactive) | > 78 µM (inactive)
Cc1ccc(C(=O)/C=C2/Nc3ccc([N+](=O)[O-])cc3N/C2=C/C(=O)c2ccc(C)cc2)cc1 | 27.7 µM (inactive) | 61.4 µM (inactive) | > 100 µM (inactive) | > 100 µM (inactive) | > 100 µM (inactive) | 34.7 µM (inactive) | > 100 µM (inactive) | > 100 µM (inactive) | > 100 µM (inactive) | > 100 µM (inactive) | 29.1 µM (inactive) | 23.2 µM (inactive) | 60.7 µM (inactive) | > 100 µM (inactive) | > 100 µM (inactive) | > 100 µM (inactive) | > 100 µM (inactive) | > 100 µM (inactive) | > 100 µM (inactive) | 36 µM (inactive)
CSc1nc(NC2OCC(OC(C)=O)C(OC(C)=O)C2OC(C)=O)c(/N=C\C=N\c2c(NC3OCC(OC(C)=O)C(OC(C)=O)C3OC(C)=O)nc(SC)[nH]c2=O)c(=O)[nH]1 (stereo not given) | 56.4 µM (inactive) | > 86.9 µM (inactive) | > 100 µM (inactive) | > 100 µM (inactive) | > 100 µM (inactive) | > 100 µM (inactive) | > 100 µM (inactive) | > 100 µM (inactive) | > 100 µM (inactive) | > 83 µM (inactive) | > 100 µM (inactive) | 42 µM (inactive) | 30.1 µM (inactive) | > 100 µM (inactive) | > 100 µM (inactive) | > 100 µM (inactive) | > 100 µM (inactive) | > 100 µM (inactive) | > 71.8 µM (inactive) | 46.7 µM (inactive)
CSc1c(C#N)c(S)[nH]c(=O)c1C#N | > 100 µM (inactive) | 29.6 µM (inactive) | 3.89 µM (inactive) | 46.1 µM (inactive) | 20.6 µM (inactive) | 1.85 µM (inactive) | 35.8 µM (inactive) | 48 µM (inactive) | 33.8 µM (inactive) | 18.7 µM (inactive) | 42.8 µM (inactive) | 24.2 µM (inactive) | 71.8 µM (inactive) | 33 µM (inactive) | 7.14 µM (inactive) | 25.4 µM (inactive) | 37.1 µM (inactive) | 31.9 µM (inactive) | > 100 µM (inactive) | 47.2 µM (inactive)
